Experimental data from patent US12186283B2, “Bismuth-thiol compositions and methods of use” (Microbion Corporation, priority 2018, dated 2025).
Several values for one entry are separate records, joined by “and”; a condition that tells them apart may be missing. Equal values may be shown once.

Experiments:
[1] = Phase 1 human clinical studies, topical administration; type: in vivo; details: humans
[2] = Hematology after face-mask inhalation in beagle dogs; type: in vivo; details: inhalation Day 0 and 7, animal and Avg lines, samplings not labelled
Procedure: The objective of the study is to determine the maximum tolerated dose (MTD) or maximum feasible dose (MFD) of inhaled bismuth ethanedithiol (BisEDT) after face-mask inhalation exposure (up to 60 min of exposure) in male and female beagle dogs. Animals will be monitored for up to 14 days following the first day of exposure and blood will be collected at predetermined timepoints to analyze the pharmacokinetics of BisEDT. In addition, a coagulation panel will be conducted prior to necropsy. At the conclusion of the study animals will be euthanized and undergo necropsy during which the respiratory tract will be harvested for bioanalytical and histopathological analysis. Results obtained will inform a follow up repeated dose GLP study. This test article is currently being developed as a novel formulation of a broad spectrum antimicrobial/antibiofilm agent, indicated for the treatment of lung infections in patients with cystic fibrosis.
Once adequately conditioned to the restraint device and face-masks, the animals are individually exposed to the test article aerosols. Animals receive a single face-mask inhalation exposure in a ramp study design to test article aerosols for up to 60 min. Animal observations during and post exposure determine the tolerance of inhaled BisEDT aerosols.
Group 1 (vehicle) are exposed to a vehicle atmosphere for 30 minutes. Group 2 (50 μg/kg) are exposed to BisEDT for 30 minutes. Target concentrations and exposure durations for Groups 3-5 are based on the presence of any toxicity via clinical observations or gross necropsy findings. In each of Groups 3-5, if no adverse clinical signs of toxicity are observed, the next groups' exposure will be conducted at a higher target dose. If adverse clinical signs of toxicity are observed, the next groups' exposure will be conducted at a lower target dose. This approach is repeated for all BisEDT doses. The final documented exposure duration is the maximum tolerated dose or the maximum feasible dose.
Blood are collected for pharmacokinetic (PK) analysis prior to exposure, then at 4 hr (±5 min) post exposure, and again on Day 1, Day 2, Day 7 (pre- and 4 hr (±5 min)-post exposure), Day 8, Day 9, Day 10, Day 11, Day 12, Day 13, and Day 14. A total of 0.25 mL is collected at each timepoint. No PK blood is collected from the vehicle control (Group 1) animals; only animals exposed to BisEDT have blood collected for PK analysis. Collected samples are flash frozen without processing for shipment to Medpace for bioanalytical analysis. Additional blood is collected from all animals in all groups for hematology (1 mL) and clinical chemistry (1 mL) at baseline, Day 7 (pre-exposure), and again at euthanasia. Blood (2-2 mL) is collected from all animals at necropsy for coagulation analysis (d-Dimer, fibrinogen, PT, and PTT).
For hematology analyses, whole blood (1 ml) will be collected with vacutainers containing K3EDTA as an anticoagulant.
Hematology samples are analyzed by automated (ADVIA™ 120 Hematology System, Siemens Medical Solutions Diagnostics, Tarrytown, NY) analyses. Disposition will be recorded on the sample processing form.

[3] = dogs Group 2 (target 50 μg/kg; lung deposited 55-56 ug/kg)

C1C[S][Bi]([S]CC[S][Bi]2[S]CC[S]2)[S]1 [BisEDT, bismuth-1,2-ethanedithiol]
concentration well-tolerated ([1]; administered topically for 6 hours): up to 2500 μg/cm^2 | concentration tolerated ([1]; topical, over 21 days continuous exposure to normal and abraded skin): up to 75 μg/cm^2 | HGB [2, 3]: 15.6 g/dL and 15.0 g/dL and 14.2 g/dL and 16.4 g/dL and 14.3 g/dL | LUC [2, 3]: 0.01 ^3/uL and 0.02 ^3/uL | MCH [2, 3]: 22.8 pg and 23.2 pg and 22.7 pg and 22.3 pg and 21.9 pg | MCHC [2, 3]: 34.1 g/dL and 34.9 g/dL and 33.4 g/dL and 34.4 g/dL and 33.2 g/dL | MONO [2, 3]: 0.63 ^3/uL and 0.67 ^3/uL and 0.53 ^3/uL and 0.50 ^3/uL and 0.51 ^3/uL | LUC ([2]; dogs Group 4 (lung deposited 176-197 ug/kg)): 0.01 ^3/uL and 0.02 ^3/uL
